Laboratory results as given in ChEMBL document CHEMBL2057188, “Hybridizing ability and nuclease resistance profile of backbone modified cationic phosphorothioate oligonucleotides” (Bioorg Med Chem, 2012).

How the values were obtained:
Type in all cases: nucleic-acid assay
Nucleic Acid [1] = assay: DNA hybridizing activity at single stranded RNA assessed as thermal stability of duplexes formed between compound and complimentary ssRNA by measuring melting temperature at 4 uM in presence of 10 mM pH 7.2 sodium phosphate buffer containing 100 mM NaCl by UV based melting experiment
Nucleic Acid [2] = assay: DNA hybridizing activity at 22 bp double stranded DNA assessed as thermal stability of duplexes formed between compound and complimentary dsDNA by measuring melting temperature at 1.5 uM in presence of 7 mM pH 5.5 sodium phosphate buffer containing 140 mM K, 10 mM MgCl2 by UV based melting experiment
Nucleic Acid [3] = assay: DNA hybridizing activity at single stranded DNA assessed as thermal stability of duplexes formed between compound and complimentary ssDNA by measuring melting temperature at 4 uM in presence of 10 mM pH 7.2 sodium phosphate buffer containing 100 mM NaCl by UV based melting experiment

## Cc1cn([C@H]2C[C@H](OP(=O)(O)OC[C@H]3O[C@@H](n4cc(C)c(=O)[nH]c4=O)C[C@@H]3OP(=O)(O)OC[C@H]3O[C@@H](n4cc(C)c(=O)[nH]c4=O)C[C@@H]3O[P@](=O)(S)OC[C@H]3O[C@@H](n4cc(C)c(=O)[nH]c4=O)C[C@@H]3OP(=O)(O)OC[C@H]3O[C@@H](n4cc(C)c(=O)[nH]c4=O)C[C@@H]3OP(=O)(O)OC[C@H]3O[C@@H](n4cc(C)c(=O)[nH]c4=O)C[C@@H]3OP(=O)(O)OC[C@H]3O[C@@H](n4ccc(N)nc4=O)C[C@@H]3OP(=O)(O)OC[C@H]3O[C@@H](n4ccc(N)nc4=O)C[C@@H]3OP(=O)(O)OC[C@H]3O[C@@H](n4ccc(N)nc4=O)C[C@@H]3OP(=O)(O)O)[C@@H](COP(=O)(O)O[C@H]3C[C@H](n4ccc(N)nc4=O)O[C@@H]3COP(=O)(O)O[C@H]3C[C@H](n4ccc(N)nc4=O)O[C@@H]3COP(=O)(O)O[C@H]3C[C@H](n4ccc(N)nc4=O)O[C@@H]3CO)O2)c(=O)[nH]c1=O
Nucleic Acid [1]
  Tm: 46 °C
Nucleic Acid [2]
  Tm: 25 °C
Nucleic Acid [3]
  Tm: 42 °C

## Cc1cn([C@H]2C[C@H](OP(=O)(O)OC[C@H]3O[C@@H](n4cc(C)c(=O)[nH]c4=O)C[C@@H]3OP(=O)(O)OC[C@H]3O[C@@H](n4cc(C)c(=O)[nH]c4=O)C[C@@H]3O[P@@](=O)(S)OC[C@H]3O[C@@H](n4cc(C)c(=O)[nH]c4=O)C[C@@H]3OP(=O)(O)OC[C@H]3O[C@@H](n4cc(C)c(=O)[nH]c4=O)C[C@@H]3OP(=O)(O)OC[C@H]3O[C@@H](n4cc(C)c(=O)[nH]c4=O)C[C@@H]3OP(=O)(O)OC[C@H]3O[C@@H](n4ccc(N)nc4=O)C[C@@H]3OP(=O)(O)OC[C@H]3O[C@@H](n4ccc(N)nc4=O)C[C@@H]3OP(=O)(O)OC[C@H]3O[C@@H](n4ccc(N)nc4=O)C[C@@H]3OP(=O)(O)O)[C@@H](COP(=O)(O)O[C@H]3C[C@H](n4ccc(N)nc4=O)O[C@@H]3COP(=O)(O)O[C@H]3C[C@H](n4ccc(N)nc4=O)O[C@@H]3COP(=O)(O)O[C@H]3C[C@H](n4ccc(N)nc4=O)O[C@@H]3CO)O2)c(=O)[nH]c1=O
Nucleic Acid [1]
  Tm: 46 °C
Nucleic Acid [2]
  Tm: 26 °C
Nucleic Acid [3]
  Tm: 42 °C

## Cc1cn([C@H]2C[C@H](OP(=O)(O)O)[C@@H](COP(=O)(O)O[C@H]3C[C@H](n4ccc(N)nc4=O)O[C@@H]3COP(=O)(O)O[C@H]3C[C@H](n4ccc(N)nc4=O)O[C@@H]3COP(=O)(O)O[C@H]3C[C@H](n4cc(C)c(=O)[nH]c4=O)O[C@@H]3COP(=O)(O)O[C@H]3C[C@H](n4cc(C)c(=O)[nH]c4=O)O[C@@H]3COP(=O)(O)O[C@H]3C[C@H](n4cc(C)c(=O)[nH]c4=O)O[C@@H]3COP(=O)(O)O[C@H]3C[C@H](n4cc(C)c(=O)[nH]c4=O)O[C@@H]3COP(=O)(O)O[C@H]3C[C@H](n4cc(C)c(=O)[nH]c4=O)O[C@@H]3COP(=O)(O)O[C@H]3C[C@H](n4cc(C)c(=O)[nH]c4=O)O[C@@H]3COP(=O)(O)O[C@H]3C[C@H](n4ccc(N)nc4=O)O[C@@H]3COP(=O)(O)O[C@H]3C[C@H](n4ccc(N)nc4=O)O[C@@H]3COP(=O)(O)O[C@H]3C[C@H](n4ccc(N)nc4=O)O[C@@H]3CO)O2)c(=O)[nH]c1=O
Nucleic Acid [1]
  Tm: 48 °C
Nucleic Acid [2]
  Tm: 29 °C
Nucleic Acid [3]
  Tm: 44 °C
